Consider 2 molecules from patent publication US20250195532A1, “NOVEL PHOSPHOINOSITIDE 3-KINASE (PI3K) INHIBITOR, COMPOSITIONS COMPRISING THE SAME, METHODS OF MAKING, AND METHODS OF TREATING A DISEASE” (The Curators of the University of Missouri, priority 2022, published 2025).

The conditions of data set [1]: background statement, cited from earlier work.
The nature of the next data set: physchem. It counts as physicochemical.
In another data set the test system is TRAMP cell line cells. The data set is described as follows: Cellular uptake / cell killing by luminescence, TRAMP. Format: cell-based. As to conditions: Mus musculus, FIG. 5D. The procedure: (§1) Different cell lines were seeded, incubated, and washed prior to administering a dose solution of CK-TGX-MN. Cell lines tested included LNCaP cell line, which is a cell line with epithelial-like morphology that was isolated from a metastatic lymph node a lesion of human prostate cancer; C4-2, which is a prostate cancer cell line derived from LNCaP cells that grows in the absence of androgens, yet responds to manipulation of androgen levels; GL261 cell line, which are murine glioma cells isolated from […] brain; PC-3 cell line, which is a prostate cancer cell line that is typically used as a model of androgen-independent prostate cancer; TRAMP cell line, which are epithelial cells isolated from transgenic adenocarcinoma of the mouse prostate; and Hela cell line, which is an immortalized human cell line isolated from cervical cancer cells.
(§2) The cellular uptake was measured as a function of luminescence and concentration of CK-TGX-MN, by determining the IC50 value. A decrease in luminescence observed translates to the efficacy of CK-TGX-MN in killing the cells of the respective cell culture.
Moving on to FIG. 5D, the cellular uptake of CK-TGX-MN and TGX-221 in TRAMP cell line cells was measured.

In another data set the test system is GL261 cell line cells. The data set is described as follows: Cellular uptake / cell killing by luminescence, GL261. Format: cell-based, murine. As to conditions: Mus musculus, FIG. 5B. The method, then:
as §1, §2

The next data set deals with LNCaP cell line cells. In words: Cellular uptake / cell killing by luminescence, LNCaP. Format: cell-based. As to conditions: Homo sapiens, FIG. 5F. The procedure: as §1, §2
Finally, moving on to FIG. 5F, the cellular uptake of CK-TGX-MN and TGX-221 in LNCaP cell line cells was measured.

Another data set relates to C4-2 cell line cells. The data set is described as follows: Cellular uptake / cell killing by luminescence, C4-2. Format: cell-based. As to conditions: Homo sapiens, C4-2 cells, FIG. 5A. The method, then:
as §1, §2

In another data set the test system is PC-3 cell line cells. The data set is described as follows: Cellular uptake / cell killing by luminescence, PC-3. It counts as cell-based. As to conditions: Homo sapiens, PC-3 cells, FIG. 5C. The procedure:
as §1, §2
Moving on to FIG. 5C, the cellular uptake of CK-TGX-MN and TGX-221 in PC-3 cell line cells was measured.

The test system of another data set is Hela cell line cells. In words: Cellular uptake / cell killing by luminescence, Hela. Format: cell-based. As to conditions: Homo sapiens, FIG. 5E. The method, then: as §1, §2
Moving on to FIG. 5E, the cellular uptake of CK-TGX-MN and TGX-221 in Hela cell line cells was measured.

A further data set deals with PI3Kβ isoform (Homo sapiens, UniProt P42338). The data set is described as follows: Inhibition of PI3Kβ isoform, dose response curves (FIG. 4B). It counts as biochemical.
Chain of PI3Kβ isoform (P42338 whole entry, canonical isoform): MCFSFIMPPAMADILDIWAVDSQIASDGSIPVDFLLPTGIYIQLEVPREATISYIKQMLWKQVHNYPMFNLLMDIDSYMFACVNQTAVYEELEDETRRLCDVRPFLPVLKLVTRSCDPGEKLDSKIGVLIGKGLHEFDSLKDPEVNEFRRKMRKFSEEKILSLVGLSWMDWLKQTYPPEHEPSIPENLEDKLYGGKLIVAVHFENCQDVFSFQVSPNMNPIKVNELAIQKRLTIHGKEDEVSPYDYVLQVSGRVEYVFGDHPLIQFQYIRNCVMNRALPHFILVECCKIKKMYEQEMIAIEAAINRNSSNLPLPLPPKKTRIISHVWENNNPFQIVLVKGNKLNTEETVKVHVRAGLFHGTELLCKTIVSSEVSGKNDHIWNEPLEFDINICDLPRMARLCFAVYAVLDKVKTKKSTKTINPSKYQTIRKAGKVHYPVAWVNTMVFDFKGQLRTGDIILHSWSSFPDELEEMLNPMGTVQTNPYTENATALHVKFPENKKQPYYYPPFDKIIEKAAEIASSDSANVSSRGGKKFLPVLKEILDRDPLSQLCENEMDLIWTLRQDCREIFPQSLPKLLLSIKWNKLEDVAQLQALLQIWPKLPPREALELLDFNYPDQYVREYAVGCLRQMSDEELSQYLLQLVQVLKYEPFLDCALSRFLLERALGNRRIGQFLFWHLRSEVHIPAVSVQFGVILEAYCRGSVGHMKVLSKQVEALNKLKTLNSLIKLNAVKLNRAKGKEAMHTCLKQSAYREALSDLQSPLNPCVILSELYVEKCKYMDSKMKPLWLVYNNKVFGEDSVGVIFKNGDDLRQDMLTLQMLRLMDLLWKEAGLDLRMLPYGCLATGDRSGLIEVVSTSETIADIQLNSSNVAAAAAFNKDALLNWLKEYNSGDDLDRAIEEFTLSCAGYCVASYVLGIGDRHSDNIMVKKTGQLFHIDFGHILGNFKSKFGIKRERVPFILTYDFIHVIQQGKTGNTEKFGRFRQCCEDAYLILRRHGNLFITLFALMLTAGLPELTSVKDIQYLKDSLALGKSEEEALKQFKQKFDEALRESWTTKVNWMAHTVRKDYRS
Chain of PI3Kβ isoform (P27986 whole entry partner, canonical isoform): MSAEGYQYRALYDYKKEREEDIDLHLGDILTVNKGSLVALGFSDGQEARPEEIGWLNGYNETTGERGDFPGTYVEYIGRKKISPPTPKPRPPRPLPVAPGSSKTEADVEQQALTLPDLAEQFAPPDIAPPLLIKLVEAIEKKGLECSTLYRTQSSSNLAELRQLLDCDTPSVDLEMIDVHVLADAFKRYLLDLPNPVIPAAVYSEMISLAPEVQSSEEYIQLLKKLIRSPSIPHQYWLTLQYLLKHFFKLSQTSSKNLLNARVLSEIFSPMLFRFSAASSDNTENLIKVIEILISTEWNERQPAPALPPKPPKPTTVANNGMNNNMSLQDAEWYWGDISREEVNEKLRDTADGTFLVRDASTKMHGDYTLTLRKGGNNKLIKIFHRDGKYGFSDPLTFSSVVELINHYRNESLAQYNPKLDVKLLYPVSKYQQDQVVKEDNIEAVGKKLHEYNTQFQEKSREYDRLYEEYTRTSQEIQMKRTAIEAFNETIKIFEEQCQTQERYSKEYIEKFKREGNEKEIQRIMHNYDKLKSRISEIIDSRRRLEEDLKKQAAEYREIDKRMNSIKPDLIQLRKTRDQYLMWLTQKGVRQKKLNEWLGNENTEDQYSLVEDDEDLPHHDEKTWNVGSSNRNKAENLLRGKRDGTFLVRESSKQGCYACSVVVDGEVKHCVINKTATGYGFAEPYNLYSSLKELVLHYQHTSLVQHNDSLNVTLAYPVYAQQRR
The nature of data set [2]: Pharmacokinetic (PK) study, IV and oral route, in mice. As to conditions: mouse, in vivo, oral 2 mg/ml formulation vs IV 1 mg/ml formulation. The procedure: Bioavailability in Pharmacology is a measure of an amount of a drug substance that enters the circulation and becomes completely available for its intended purpose when introduced into the body. There are several delivery routes for drugs including intra-venous route (IV), oral route, subcutaneous route, rectal route, intramuscular route, vaginal route, inhaled route, and the like.
Bioavailability of CK-TGX-MN was determined in relation to a liquid formulation of CK-TGX-MN 1 mg/ml in 5% DMSO, 10%, and 85% aqueous solution. A dose amount of aqueous CK-TGX-MN was prepared for delivery through the IV route in-vivo. Additionally, a liquid formulation of CK-TGX-MN 2 mg/ml in 5% DMSO, 10%, and 85% aqueous solution was prepared for delivery of a dose amount of CK-TGX-MN through the oral route in-vivo. The pharmacokinetic (PK) studies were performed in mice. As shown in graph 302 of FIG. 3B, the depicted example mice had similar clearance of IV delivered CK-TGX-MN over time.

Several values for one entry are separate records, joined by “and”; a condition that tells them apart may be missing. Identical values can stand only once. Like-named read-outs stand apart in the source and are kept apart here.

Usually solubility stands for how much of the substance goes into solution per volume. The term IC50 denotes the point on the concentration scale where inhibition reaches its midpoint. As for `Cc1cc(C(C)Nc2ccccc2)c2nc(N3CCOCC3)cc(=O)n2c1` (stereo not drawn) [TGX-221, 7-methyl-2-(4-morpholinyl)-9-[1-(phenylamino)ethyl]-4H-pyrido[1,2-a]pyrimidin-4-one], the solubility in [1] was below 1000 µg/mL; in the data set “physchem”, 90 µg/mL and 250 µM. For the same molecule, the “Log D7.4” value in data set [1] (pH 7.4) is on record as 3.6. Also, the concentration for half-maximal inhibition (IC50) with TRAMP cell line cells is 81.2 µM; with GL261 cell line cells, 42 µM; in the data set with LNCaP cell line cells it was 30.5 µM; in the data set with C4-2 cell line cells, 93.2 µM; in the data set on PC-3 cell line cells, 156 µM; in the data set on Hela cell line cells it was 69.7 µM.
As usually defined, the bioavailability is the share of a dose that reaches the circulation, judged against a reference dose that is usually intravenous. Turning to `Cc1cc(C(C)N(CCN)c2ccccc2)c2nc(N3CCOCC3)cc(=O)n2c1` (stereo not drawn) [CK-TGX-MN, 9-(1-((2-aminoethyl)(phenyl)amino)ethyl)-7-methyl-2-morpholino-4H-pyrido[1,2-a]pyrimidin-4-one], the IC50 at PI3Kβ isoform was 0.00948 µM; in the data set on TRAMP cell line cells, 17.2 µM; with GL261 cell line cells, 13.5 µM; in the data set on LNCaP cell line cells, 6.39 µM; in the data set on C4-2 cell line cells it was 15.8 µM; in the data set with PC-3 cell line cells, 24.4 µM. In the data set with Hela cell line cells, the IC50 is 23.9 µM. The solubility in “physchem” was 4630 µg/mL and 11400 µM. This molecule returned a bioavailability in data set [2] of around 6.4%.
